From patent US11926621B1, “N′-(2-(5-(4-chlorophenyl)-1,3,4-oxadiazol-2-ylthio)acetoxy)benzo[d][1,3]dioxole-5-carboximidamide as an antimicrobial compound” (KING FAISAL UNIVERSITY, priority 2023, dated 2024)

Legend:
Format in all cases: cell-based
Bacillus cereus = test: Agar plate disc-diffusion, antibacterial inhibition zone; settings: nutrient agar, 37° C., 48 h
Method: The agar plate disc-diffusion method was applied. […] The discs were then placed onto the surface of agar plates (nutrient agar for bacteria and Sabouraud's dextrose agar for fungi) seeded with the test organism. Each plate contained 15 mL of the agar medium, previously seeded with 0.2 mL of the broth culture of each organism pregrown for 18 hours. The plates were incubated at 37° C. for 48 h, and 72 h for fungi. The inhibition zones were measured in mm. Discs impregnated with DMSO were used as a control, and its inhibition zone was subtracted from the tested compound actual inhibition zone.
(§1) The results of the antimicrobial testing can be observed in Tables 1 and 2, below, using ciprofloxacin as a reference.

Aspergillus flavus = test: Agar plate disc-diffusion, antifungal inhibition zone; settings: Sabouraud's dextrose agar, 72 h
Method: (§2) The agar plate disc-diffusion method was applied. Sterilized filter papers (6 mm in diameter) were wetted with 10 μL of a solution of N′-(2-(5-(4-chlorophenyl)-1,3,4-oxadiazol-2-ylthio)acetoxy)benzo[d][1,3]dioxole-5-carboximidamide (3) to be tested, containing 10 mg/mL in DMSO, and the discs were allowed to air dry. The discs were then placed onto the surface of agar plates (nutrient agar for bacteria and Sabouraud's dextrose agar for fungi) seeded with the test organism. Each plate contained 15 mL of the agar medium, previously seeded with 0.2 mL of the broth culture of each organism pregrown for 18 hours. The plates were incubated at 37° C. for 48 h, and 72 h for fungi. The inhibition zones were measured in mm. Discs impregnated with DMSO were used as a control, and its inhibition zone was subtracted from the tested compound actual inhibition zone.
as §1

[1] = system: Chrysosporium keratinophilum; test: as above; settings: Sabouraud's dextrose agar, 72 h
Method: as §2, with “[…],” for “containing 10 mg/mL in DMSO,”
as §1

Pseudomonas aeruginosa = test: Agar plate disc-diffusion, antibacterial inhibition zone; settings: nutrient agar, 37° C., 48 h
Method: as §2, with “[…],” for “containing 10 mg/mL in DMSO,”
as §1

Escherichia coli = test: as above; settings: nutrient agar, 37° C., 48 h
Method: as §2, with “[…],” for “containing 10 mg/mL in DMSO,”
as §1

Staphylococcus aureus = test: as above; settings: nutrient agar, 37° C., 48 h
Method: as §2, with “[…],” for “containing 10 mg/mL in DMSO,”
as §1

[2] = A = concentration of comp. = 10,000 μL
[3] = B = concentration of comp. = 30.000 μL
[4] = C = concentration of comp. = 50,000 μL

N/C(=N\OC(=O)CSc1nnc(-c2ccc(Cl)cc2)o1)c1ccc2c(c1)OCO2 [Compound 3, N′-(2-(5-(4-chlorophenyl)-1,3,4-oxadiazol-2-ylthio)acetoxy)benzo[d][1,3]dioxole-5-carboximidamide]
inhibition zone, Bacillus Cereus, A (Bacillus cereus; [2]): 23 mm
inhibition zone, Bacillus Cereus, B (Bacillus cereus; [3]): 28 mm
inhibition zone, Bacillus Cereus, C (Bacillus cereus; [4]): 37 mm
inhibition zone, Aspergillus flavus, A (Aspergillus flavus; [2]): 25 mm
inhibition zone, Aspergillus flavus, B (Aspergillus flavus; [3]): 28 mm
inhibition zone, Aspergillus flavus, C (Aspergillus flavus; [4]): 38 mm
inhibition zone, Chrysosporium keratinophilum, A [1, 2]: 24 mm
inhibition zone, Chrysosporium keratinophilum, B [1, 3]: 29 mm
inhibition zone, Chrysosporium keratinophilum, C [1, 4]: 45 mm
inhibition zone, Pseudomonas aeruginosa, A (Pseudomonas aeruginosa; [2]): 22 mm
inhibition zone, Pseudomonas aeruginosa, B (Pseudomonas aeruginosa; [3]): 25 mm
inhibition zone, Pseudomonas aeruginosa, C (Pseudomonas aeruginosa; [4]): 32 mm
inhibition zone, Escherichia coli, A (Escherichia coli; [2]): 25 mm
inhibition zone, Escherichia coli, B (Escherichia coli; [3]): 30 mm
inhibition zone, Escherichia coli, C (Escherichia coli; [4]): 43 mm
inhibition zone, Staphylococcus aureus, A (Staphylococcus aureus; [2]): 25 mm
inhibition zone, Staphylococcus aureus, B (Staphylococcus aureus; [3]): 31 mm
inhibition zone, Staphylococcus aureus, C (Staphylococcus aureus; [4]): 40 mm
